Results: US11179372B2, “Isoxazoline solution containing vitamin E for use with sanitized drinking water” (Intervet Inc., priority 2015, dated 2021)

Key:
[1] = Effect of drinking water quality on degradation of Fluralaner; format: physicochemical
Description: To assess what caused the degradation of Fluralaner in dilution in drinking water, the impact of different types and qualities of drinking water was tested. This was done by incubation of samples containing 1 μg/g of Fluralaner, in water that contained different ions at increased concentrations from average normal conditions. Samples were mixed and incubated for 7 days, either at 2-8° C., or at 40° C./75% relative humidity (RH). Fluralaner contents were measured before and after incubations. Isoxazolines such as Fluralaner can be detected and quantified by fast liquid chromatography methods, using standard equipment and procedures, such as UHPLC. Standard liquids for washing and as carrier are e.g.: LC grade Acetonitrile, Methanol, Formic acid, and MiliQ™ water can be prepared in house. Fluralaner is characterised based on its UV spectrum and retention profile, and quantified in reference to dilutions of standards. LoQ=Limit of Quantitation, the lowest concentration at which the analyte can reliably be detected. For Fluralaner by UHPLC the LoQ is 100 ng/ml.

[2] = Residues and withdrawal time in treated birds; format: in vivo; conditions: treated layer birds, oral uptake
[3] = Tolerance of Fluralaner in laying hens (Example 1); format: in vivo, chickens; conditions: 0.5-2 mg/kg BW via medicated drinking water
Description: Experimental animals were chickens, particularly laying hens of about 30 weeks old. These were housed in a standard poultry house. Apparently healthy birds were assigned in a random way to treatment groups kept separately, and labelled individually. The birds were kept under natural light, and were given several days for acclimatization; drinking water consumption in each group was measured on three days prior to administration to calculate the average daily water consumption. Medicated water was prepared by diluting a concentrated Fluralaner solution (10 mg/ml) to the desired concentration of Fluralaner in regular tap water (hypochlorite <0.5 ppm). […]
The dose to be administered was calculated based on average body weights of each treatment group, measured one day before treatment (day −1, day 6). A concentrated Fluralaner solution was diluted in the drinking water to prepare medicated drinking water ready for consumption, via the following dosing regimen: • The volume of medicated water offered per group on day 0 (group D also on day 7) was approximately 50% of the calculated mean daily water intake measured previously in the respective group in order to ensure consumption of the full dose. • Once all medicated water was consumed the other 50% volume of the mean daily water intake was supplied as unmedicated tap water in the same drinker.

[4] = 1 μg/g Fluralaner in Al^3+ water at 1 mg/l
[5] = 1 μg/g Fluralaner in ClO^- water at 0.5 ppm
[6] = 1 μg/g Fluralaner in ClO^- water at 5 ppm
[7] = 1 μg/g Fluralaner in ClO^- water at 50 ppm
[8] = 1 μg/g Fluralaner in ClO^- water at 150 ppm
[9] = 1 μg/g Fluralaner in ClO^- water at 250 ppm
[10] = 1 μg/g Fluralaner in Cl^- water at 300 mg/l
[11] = 1 μg/g Fluralaner in Cu^2+ water at 10 mg/l
[12] = 1 μg/g Fluralaner in Fe^3+ water at 1 mg/l
[13] = 1 μg/g Fluralaner in Hard water/high pH (500 mg CaCl2•2H2O/l; pH 8.1)
[14] = 1 μg/g Fluralaner in K^+ water at 300 mg/l
[15] = 1 μg/g Fluralaner in NO3^- water at 100 mg/l
[16] = 1 μg/g Fluralaner in Na^+ water at 300 mg/l
[17] = 1 μg/g Fluralaner in PO4^- water at 100 mg/l
[18] = 1 μg/g Fluralaner in Purified water
[19] = 1 μg/g Fluralaner in Soft water/low pH (30 mg CaCl2•2H2O/l; pH 6.2)
[20] = 1 μg/g Fluralaner in Water at pH = 4
[21] = 1 μg/g Fluralaner in Water at pH = 10

Q: Which results are given for `Cc1cc(C2=NOC(c3cc(Cl)cc(Cl)c3)(C(F)(F)F)C2)ccc1C(=O)NCC(=O)NCC(F)(F)F` (centres unmarked) [Fluralaner]?
A: Fluralaner content after 7 days at 2-8° C. [1, 4]: 0.99 µg/g; Fluralaner content after 7 days at 40° C./75% RH [1, 4]: 1.01 µg/g; Fluralaner content after 7 days at 2-8° C. [1, 5]: 0.99 µg/g; Fluralaner content after 7 days at 40° C./75% RH [1, 5]: 0.82 µg/g; Fluralaner content after 7 days at 2-8° C. [1, 6]: <LOQ; Fluralaner content after 7 days at 40° C./75% RH [1, 6]: <LOQ; Fluralaner content after 7 days at 2-8° C. [1, 7]: <LOQ; Fluralaner content after 7 days at 40° C./75% RH [1, 7]: <LOQ; Fluralaner content after 7 days at 2-8° C. [1, 8]: <LOQ; Fluralaner content after 7 days at 40° C./75% RH [1, 8]: <LOQ; Fluralaner content after 7 days at 2-8° C. [1, 9]: Not detected; Fluralaner content after 7 days at 40° C./75% RH [1, 9]: Not detected; Fluralaner content after 7 days at 2-8° C. [1, 10]: 0.97 µg/g; Fluralaner content after 7 days at 40° C./75% RH [1, 10]: 0.98 µg/g; Fluralaner content after 7 days at 2-8° C. [1, 11]: 0.90 µg/g; Fluralaner content after 7 days at 40° C./75% RH [1, 11]: 0.78 µg/g; Fluralaner content after 7 days at 2-8° C. [1, 12]: 0.91 µg/g; Fluralaner content after 7 days at 40° C./75% RH [1, 12]: 0.89 µg/g; Fluralaner content after 7 days at 2-8° C. [1, 13]: 0.92 µg/g; Fluralaner content after 7 days at 40° C./75% RH [1, 13]: 0.96 µg/g; Fluralaner content after 7 days at 2-8° C. [1, 14]: 0.90 µg/g; Fluralaner content after 7 days at 40° C./75% RH [1, 14]: 0.80 µg/g; Fluralaner content after 7 days at 2-8° C. [1, 15]: 0.92 µg/g; Fluralaner content after 7 days at 40° C./75% RH [1, 15]: 0.93 µg/g; Fluralaner content after 7 days at 2-8° C. [1, 16]: 0.85 µg/g; Fluralaner content after 7 days at 40° C./75% RH [1, 16]: 0.84 µg/g; Fluralaner content after 7 days at 2-8° C. [1, 17]: 1.14 µg/g; Fluralaner content after 7 days at 40° C./75% RH [1, 17]: 1.15 µg/g; Fluralaner content after 7 days at 2-8° C. [1, 18]: 0.90 µg/g; Fluralaner content after 7 days at 40° C./75% RH [1, 18]: 0.92 µg/g; Fluralaner content after 7 days at 2-8° C. [1, 19]: 0.88 µg/g; Fluralaner content after 7 days at 40° C./75% RH [1, 19]: 0.89 µg/g; Fluralaner content after 7 days at 2-8° C. [1, 20]: 1.23 µg/g; Fluralaner content after 7 days at 40° C./75% RH [1, 20]: 1.26 µg/g; Fluralaner content after 7 days at 2-8° C. [1, 21]: 0.78 µg/g; Fluralaner content after 7 days at 40° C./75% RH [1, 21]: 0.79 µg/g; Residue levels in eggs [2]: far below the MRL value; Tolerance in the hens [3]: well tolerated
